We go through 18 compounds from publication PMC7696433, “Carbohydrate Hydrolase-Inhibitory Activity of Juice-Based Phenolic Extracts in Correlation to Their Anthocyanin/Copigment Profile” (Molecules, 2020).

Test [1] concerns α-glucosidase from Saccharomyces cerevisiae. The test can be described thus: In vitro α-glucosidase inhibition study (pNPG substrate, absorbance 405 nm). It is filed as biochemical. The following applies: 2 mM of single substance; mean ± SD, n = 3. The method, then:
The α-glucosidase inhibition assay used 4-nitrophenyl-α-D-glucopyranoside as substrate. 20 μL aliquots of the sample (in five different concentrations) or negative and positive control solutions were each mixed with 70 μL enzyme solution (1 U/mL) in 0.1 M PBS (pH 6.8). After incubation at 25 °C for 10 min, 100 μL of 4 mM pNPG solution in PBS was added and incubated in a 96-well microplate for 5 min at 25 °C. The absorbance was measured at λ 405 nm using a microplate reader (Biotek, Bad Friedrichshall, Germany). Each sample was measured in triplicate.

Test [2] addresses T1, porcine pancreatic α-amylase (Sus scrofa, UniProt P00690).
T1 construct: α-amylase from porcine pancreas; purchased Sigma-Aldrich (Taufkirchen, Germany); host or cells: porcine pancreas
T1 sequence (P00690 16-511): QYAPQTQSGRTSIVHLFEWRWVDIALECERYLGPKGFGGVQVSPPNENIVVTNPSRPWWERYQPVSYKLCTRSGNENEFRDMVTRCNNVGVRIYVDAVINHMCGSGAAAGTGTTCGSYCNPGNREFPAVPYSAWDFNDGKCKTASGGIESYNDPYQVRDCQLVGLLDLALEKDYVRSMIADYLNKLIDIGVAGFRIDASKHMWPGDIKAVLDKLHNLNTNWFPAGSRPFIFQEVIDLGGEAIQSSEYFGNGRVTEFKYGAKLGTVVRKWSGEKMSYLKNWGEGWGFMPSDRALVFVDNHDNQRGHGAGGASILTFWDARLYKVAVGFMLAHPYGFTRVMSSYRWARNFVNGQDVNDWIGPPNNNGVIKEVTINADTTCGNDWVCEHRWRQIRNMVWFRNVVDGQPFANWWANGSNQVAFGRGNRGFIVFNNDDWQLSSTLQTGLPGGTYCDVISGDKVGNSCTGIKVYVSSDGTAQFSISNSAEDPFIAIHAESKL
The test is described as follows: In vitro α-amylase inhibition study (CNPG3 substrate, absorbance 405 nm). It is filed as biochemical. Conditions: 2 mM of single substance; mean ± SD, n = 3. As to the method: The α-amylase inhibition assay was based on a previously described spectrophotometric method. […] Briefly, 20 μL aliquots of the sample (in five different concentrations), the positive control, or the negative control were each mixed with 70 μL of 40 mM phosphate buffered saline (PBS) at pH 6.9 containing 30 U/mL of porcine pancreatic α-amylase and incubated in a 96-well microplate at 37 °C for 10 min. After pre-incubation, 100 μL of substrate solution (40 mM PBS with 4 mM 2-chloro-4-nitrophenyl-α-D-maltotrioside) was added, and the resulting mixtures were incubated at 37 °C for 8 min. Their absorbance was then measured at λ 405 nm using a microplate reader (Biotek, Bad Friedrichshall, Germany). Each sample was measured in triplicate.

Regarding `O=C1O[C@H]2[C@@H]3OC(=O)c4cc(O)c(O)c(O)c4-c4c(O)c(O)c5oc(=O)c6c(c(O)c(O)c7oc(=O)c4c5c76)-c4c(cc(O)c(O)c4O)C(=O)OC[C@H]3OC(O)[C@@H]2OC(=O)c2cc(O)c(O)c(O)c2-c2c1cc(O)c(O)c2O` (mixture of isomers) [punicalagin], the “Inhibition (%) of α-glucosidase” value in test [1] stood at 11.5 ± 1.0%. Also, in test [2], the “Inhibition (%) of α-amylase” value was found to be 4.8 ± 2.6%.

For `O=C1OC[C@H]2OC(O)[C@H](O)[C@@H](O)[C@@H]2OC(=O)c2cc(O)c(O)c(O)c2-c2c(O)c(O)c3oc(=O)c4c(c(O)c(O)c5oc(=O)c2c3c54)-c2c1cc(O)c(O)c2O` (mixture of isomers) [punicalin], the “Inhibition (%) of α-glucosidase” value in test [1] amounted to 8.7 ± 0.6%. The “Inhibition (%) of α-amylase” value in test [2] was determined as 3.8 ± 0.2%.

Consider `O=C(/C=C/c1ccc(O)c(O)c1)O[C@@H]1C[C@](O)(C(=O)O)C[C@@H](O)[C@H]1O` [3-caffeoylquinic acid], for which, in test [1], the “Inhibition (%) of α-glucosidase” value stood at 3.6 ± 2.2%. Further, the “Inhibition (%) of α-amylase” value in test [2] is reported as 13.8 ± 1.4%.

In the case of `O=C(/C=C/c1ccc(O)c(O)c1)O[C@H]1[C@H](O)C[C@](O)(C(=O)O)C[C@H]1O` [4-caffeoylquinic acid], the “Inhibition (%) of α-glucosidase” value in test [1] was 4.5 ± 3.3%. In addition, the “Inhibition (%) of α-amylase” value in test [2] turned out to be 16.0 ± 3.1%.

As to `Oc1cc(O)c2cc(O)c(-c3ccc(O)c(O)c3)[o+]c2c1` [Cyanidin], the “Inhibition (%) of α-glucosidase” value in test [1] was 35.5 ± 2.4%.

`O=C(/C=C/c1ccc(O)c(O)c1)O[C@@H](C(=O)O)[C@@H](O)C(=O)O` [caftaric acid]: the “Inhibition (%) of α-glucosidase” value in test [1] came to 4.6 ± 2.2%. For the same compound, the “Inhibition (%) of α-amylase” value in test [2] was determined as 11.5 ± 2.5%.

Consider `O=C(/C=C/c1ccc(O)c(O)c1)O[C@@H]1C[C@](O)(C(=O)O)C[C@@H](O)[C@H]1O` [chlorogenic acid], for which the “Inhibition (%) of α-glucosidase” value in test [1] stood at 1.6 ± 3.1%. Also, the “Inhibition (%) of α-amylase” value in test [2] came to 20.3 ± 2.3%.

With `OC[C@H]1O[C@@H](Oc2cc3c(O[C@@H]4O[C@H](CO)[C@@H](O)[C@H](O)[C@H]4O)cc(O)cc3[o+]c2-c2ccc(O)c(O)c2)[C@H](O)[C@@H](O)[C@@H]1O` [cyanidin 3,5-diglucoside], in test [1], the “Inhibition (%) of α-glucosidase” value came out at 4.9 ± 5.2%.

Turning to `Oc1cc(O)c2cc(O[C@@H]3OC[C@H](O)[C@H](O)[C@H]3O)c(-c3ccc(O)c(O)c3)[o+]c2c1` [cyanidin 3-arabinoside], in test [2], the “Inhibition (%) of α-amylase” value is listed as 18.7 ± 1.2%.

Regarding `OC[C@H]1O[C@@H](Oc2cc3c(O)cc(O)cc3[o+]c2-c2ccc(O)c(O)c2)[C@H](O)[C@@H](O)[C@@H]1O` [cyanidin 3-glucoside], in test [1], the “Inhibition (%) of α-glucosidase” value is listed as 7.8 ± 5.5%.

On to `C[C@@H]1O[C@@H](OC[C@H]2O[C@@H](Oc3cc4c(O)cc(O)cc4[o+]c3-c3ccc(O)c(O)c3)[C@H](O)[C@@H](O)[C@@H]2O)[C@H](O)[C@H](O)[C@H]1O` [cyanidin 3-rutinoside], for which the “Inhibition (%) of α-amylase” value in test [2] is 7.6 ± 1.8%.

For `OC[C@H]1O[C@@H](Oc2cc3c(O)cc(O)cc3[o+]c2-c2cc(O)c(O)c(O)c2)[C@H](O)[C@@H](O)[C@@H]1O` [delphinidin glucoside, Delphinidin 3-glucoside], the “Inhibition (%) of α-amylase” value in test [2] came out at 12.7 ± 1.9%.

`O=c1oc2c(O)c(O)cc3c(=O)oc4c(O)c(O)cc1c4c23` [ellagic acid]: the “Inhibition (%) of α-glucosidase” value in test [1] came out at 6.0 ± 0.8%. The “Inhibition (%) of α-amylase” value in test [2] stood at 11.0 ± 0.8%.

With `O=c1c(O[C@@H]2O[C@H](CO)[C@@H](O)[C@H](O)[C@H]2O)c(-c2ccc(O)cc2)oc2cc(O)cc(O)c12` [kaempferol 3-glucoside], the “Inhibition (%) of α-glucosidase” value in test [1] is 13.2 ± 0.7%. The “Inhibition (%) of α-amylase” value in test [2] turned out to be 30.3 ± 2.2%.

In the case of `COc1cc(-c2[o+]c3cc(O)cc(O)c3cc2O[C@@H]2O[C@H](CO)[C@@H](O)[C@H](O)[C@H]2O)cc(OC)c1O` [malvidin glucoside, Malvidin 3-glucoside], the “Inhibition (%) of α-amylase” value in test [2] amounted to 9.1 ± 5.6%.

As to `COc1cc(-c2[o+]c3cc(O)cc(O)c3cc2O[C@@H]2O[C@H](CO)[C@@H](O)[C@H](O)[C@H]2O)ccc1O` [peonidin glucoside, Peonidin 3-glucoside], the “Inhibition (%) of α-amylase” value in test [2] turned out to be 11.3 ± 0.5%.

With `COc1cc(-c2[o+]c3cc(O)cc(O)c3cc2O[C@@H]2O[C@H](CO)[C@@H](O)[C@H](O)[C@H]2O)cc(O)c1O` [petunidin glucoside, Petunidin 3-glucoside], the “Inhibition (%) of α-amylase” value in test [2] came out at 7.7 ± 2.5%.

For the compound `O=c1c(O[C@@H]2O[C@H](CO)[C@H](O)[C@H](O)[C@H]2O)c(-c2ccc(O)c(O)c2)oc2cc(O)cc(O)c12` [quercetin 3-galactoside], the “Inhibition (%) of α-glucosidase” value in test [1] is on record as 8.3 ± 1.2%. The “Inhibition (%) of α-amylase” value in test [2] was found to be 28.0 ± 1.0%.
